{
  "source": "ChEMBL document CHEMBL3608259",
  "about": "“Carbonic Anhydrase Glycoinhibitors belonging to the Aminoxysulfonamide Series” (ACS Med Chem Lett, 2015)",
  "data": [
    {"biological_target": "Carbonic anhydrase 9 (Homo sapiens, UniProt Q16790)", "units": {"Ki": "nM"}, "description": "Inhibition of human recombinant carbonic anhydrase-9 catalytic domain by stopped-flow CO2 hydration assay", "values": [
      {"smiles": "CC(=O)O[C@H]1C=CC(NS(=O)(=O)ON)OC1", "note": "(mixture of isomers)", "Ki": 75},
      {"smiles": "NOS(=O)(=O)NC1C=C[C@@H](O)[C@@H](CO)O1", "note": "(mixture of isomers)", "Ki": 61},
      {"smiles": "NOS(=O)(=O)NC1C=C[C@@H](O)CO1", "note": "(mixture of isomers)", "Ki": 74},
      {"smiles": "CC(=O)O[C@@H]1C=CC(NS(=O)(=O)ON)O[C@H]1C", "note": "(mixture of isomers)", "Ki": 86},
      {"smiles": "NS(=O)(=O)ONC(=O)OCc1ccccc1", "Ki": 57},
      {"smiles": "C[C@@H]1OC(NS(=O)(=O)ON)C=C[C@H]1O", "note": "(mixture of isomers)", "Ki": 61},
      {"smiles": "NOS(=O)(=O)NC(=O)OCc1ccccc1", "Ki": 77},
      {"smiles": "NOS(=O)(=O)NC1C=C[C@H](O)[C@@H](CO)O1", "note": "(mixture of isomers)", "Ki": 85},
      {"smiles": "CC(=O)OC[C@H]1OC(NS(=O)(=O)ON)C=C[C@H]1OC(C)=O", "note": "(mixture of isomers)", "Ki": 75},
      {"smiles": "CC(=O)O[C@@H]1C=CC(NS(=O)(=O)ON)OC1", "note": "(mixture of isomers)", "Ki": 86},
      {"smiles": "CC(=O)OC[C@H]1OC(NS(=O)(=O)ON)C=C[C@@H]1OC(C)=O", "note": "(mixture of isomers)", "Ki": 90},
      {"smiles": "NOS(=O)(=O)NC1C=C[C@H](O)CO1", "note": "(mixture of isomers)", "Ki": 91}
    ]}
  ]
}
